Molecules are shown by their SMILES.

This note sets out measurements from patent US9126984B2, “4-(indol-3-yl)-pyrazole derivatives, pharmaceutical compositions and methods for use” (ITEOS THERAPEUTICS, priority 2013, dated 2015).

Assay [1] concerns the target T1, human recombinant TDO2 enzyme (Homo sapiens, UniProt P48775).
T1 construct: made in house
In words: Assay for TDO2 enzymatic activity determination. In kind it is biochemical. To be noted: human recombinant TDO2, L-Trp 1 mM, room temperature one hour, kynurenine absorbance at 480 nm. The procedure:
To measure the TDO2 activity, the reaction mixture contained (final concentrations) potassium phosphate buffer (50 mM, pH 7.5), ascorbic acid (0.25 M), methylene blue (0.125 μM), catalase (40 units/mL, from bovine liver, Sigma), and human recombinant TDO2 enzyme (prepared as described in Dolusic et al. J. Med. Chem.; 2011, 54, 5320-5334; 0.9 μg) without or with the compounds of the present invention embodiments at the indicated concentrations (total volume 112.5 μL). The reaction was initiated by the addition of 37.5 μL of L-Trp (final concentration 1 mM) at room temperature. The reaction was conducted at room temperature during one hour and stopped by the addition of 30 μL of 30% (w/v) trichloroacetic acid.
To convert N-formylkynurenine into kynurenine, the reaction mixture was incubated at 65° C. for 30 min. Then 150 μL of the reaction mixture was mixed with 120 μL, of 2.5% (w/v) 4-(dimethylamino)-benzaldehyde in acetic acid and incubated for 5 min at room temperature. Kynurenine concentrations were determined by measuring the absorbance at 480 nm. A standard curve was made with pure kynurenine. The TDO activity was measured as described above using ten serial concentrations of certain embodiments of the compounds of the present invention. Data were fitted using the Prism software (GraphPad Software, Inc.).

The target of assay [2] is T2, murine mastocytoma P815 cells overexpressing hTDO2 (Homo sapiens, UniProt P48775).
T2 construct: expressed in transfected cells; host or cells: murine mastocytoma P815 cells
T2 sequence (P48775 whole entry): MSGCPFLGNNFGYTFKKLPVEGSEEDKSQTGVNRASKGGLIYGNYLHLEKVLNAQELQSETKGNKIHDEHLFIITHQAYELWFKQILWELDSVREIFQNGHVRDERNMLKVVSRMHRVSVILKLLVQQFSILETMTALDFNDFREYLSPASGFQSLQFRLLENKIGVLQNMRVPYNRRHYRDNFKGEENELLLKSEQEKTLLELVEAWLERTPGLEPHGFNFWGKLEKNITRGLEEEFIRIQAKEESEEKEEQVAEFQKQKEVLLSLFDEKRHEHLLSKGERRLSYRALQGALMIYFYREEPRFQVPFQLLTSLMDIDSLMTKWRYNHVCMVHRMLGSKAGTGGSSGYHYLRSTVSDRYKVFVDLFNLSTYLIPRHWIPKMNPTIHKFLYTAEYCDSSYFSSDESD
The assay is described as follows: Cellular assay for TDO2 activity determination. Type of assay: cell-based. To be noted: P815 cells overexpressing hTDO2, overnight incubation at 37° C., kynurenine absorbance at 480 nm. The procedure: The assay was performed in 96-well flat bottom plates seeded with murine mastocytoma P815 cells overexpressing hTDO2 (prepared as described in Pilotte et al., PNAS, 2012, 109(7), 2497-2502), at a concentration of 5×10^4 cells/well in a final volume of 200 μL. To determine TDO or IDO activity, the cells were incubated overnight at 37° C. at 5% CO2 in IMDM (Invitrogen) supplemented with 2% FBS and 2% penicillin/streptomycin in the presence of the compounds of the present invention, at different concentrations.
The plates were then centrifuged 5 min at 1000 rpm, and 100 μL of the supernatant were collected in a conical plate, 30 uL of TCA 30% were added and a further centrifugated at 3000×g for 10 minutes. 100 μL of the supernatant were collected in a flat bottomed plate and 100 μL of 2% (w/v) 4-(dimethylamino)-benzaldehyde in acetic acid and incubated for 5 min at room temperature. Kynurenine concentrations were determined by measuring the absorbance at 480 nm. A standard curve was made with pure kynurenine. The TDO activity was measured as described above using ten serial concentrations of the compounds of the present invention. Data were fitted using the Prism software (GraphPad Software, Inc.).

T1 sequence (P48775 whole entry): as above

What is called IC50 is the concentration that gives 50% inhibition. In the case of `CNC(=O)N1CC(n2cc(-c3c[nH]c4cc(F)ccc34)cn2)C1` [Example 5, 3-(4-(6-fluoro-1H-indol-3-yl)-1H-pyrazol-1-yl)-N-methylazetidine-1-carboxamide], the IC50 in assay [1] is 1 to 10 µM.
The same measure, in the same setting: as for `CN(C)CCNC(=O)CCn1cc(-c2c[nH]c3cc(F)ccc23)cn1` [Example 13, N-(2-(dimethylamino)ethyl)-3-(4-(6-fluoro-1H-indol-3-yl)-1H-pyrazol-1-yl)propanamide], the figure is 1 to 10 µM.
For `NC(=O)Cn1cc(-c2c[nH]c3cc(F)ccc23)cn1` [Example 38, 2-(4-(6-fluoro-1H-indol-3-yl)-1H-pyrazol-1-yl)acetamide], the IC50 in assay [1] and in assay [2] was 1 to 10 µM each time.
Take `O=C(O)CCn1cc(-c2c[nH]c3cc(F)c(F)cc23)cn1` [Example 17, 3-(4-(5,6-difluoro-1H-indol-3-yl)-1H-pyrazol-1-yl)propanoic acid]: the IC50 in assay [1] lay within 10 to 100 µM.
Regarding `Fc1ccc2c(-c3cnn(CC4CCNCC4)c3)c[nH]c2c1` [Example 43, 6-fluoro-3-(1-(piperidin-4-ylmethyl)-1H-pyrazol-4-yl)-1H-indole], the 50% inhibitory concentration (IC50) in assay [1] and in assay [2] was < 1 µM each time.
Regarding `NC(=O)NCCn1cc(-c2c[nH]c3cc(F)ccc23)cn1` [Example 22, 1-(2-(4-(6-fluoro-1H-indol-3-yl)-1H-pyrazol-1-yl)ethyl)urea], the IC50 in assay [1] and in assay [2] was 1 to 10 µM in each case.
For `Fc1ccc2c(-c3cn[nH]c3)c[nH]c2c1` [Example 70, 6-fluoro-3-(1H-pyrazol-4-yl)-1H-indole], the IC50 in assay [1] and in assay [2] was < 1 µM each time.
As for `CN(C)C(=O)CCn1cc(-c2c[nH]c3cc(F)ccc23)cn1` [Example 15, 3-(4-(6-fluoro-1H-indol-3-yl)-1H-pyrazol-1-yl)-N,N-dimethylpropanamide], the IC50 in assay [1] fell in the range of 1 to 10 µM.
Turning to `Fc1ccc2c(-c3cnn(-c4ccncc4)c3)c[nH]c2c1` [Example 113, 6-fluoro-3-(1-(pyridin-4-yl)-1H-pyrazol-4-yl)-1H-indole], the IC50 in assay [1] and in assay [2] was < 1 µM each time.
Regarding `NC(=O)N1CC(n2cc(-c3c[nH]c4cc(F)ccc34)cn2)C1` [Example 4, 3-(4-(6-fluoro-1H-indol-3-yl)-1H-pyrazol-1-yl)azetidine-1-carboxamide], the IC50 in assay [1] was 1 to 10 µM.
Regarding `OCCn1cc(-c2c[nH]c3cc(F)ccc23)cn1` [Example 26, 2-(4-(6-fluoro-1H-indol-3-yl)-1H-pyrazol-1-yl)ethanol], the IC50 in assay [1] and in assay [2] was < 1 µM throughout.
On to `Fc1ccc2c(-c3cnn(CC4CNC4)c3)c[nH]c2c1` [Example 6, 3-(1-(azetidin-3-ylmethyl)-1H-pyrazol-4-yl)-6-fluoro-1H-indole], for which the IC50 in assay [1] and in assay [2] was < 1 µM throughout.
Turning to `Fc1ccc2c(-c3cnn(C4CNC4)c3)c[nH]c2c1` [Example 2, 3-(1-(azetidin-3-yl)-1H-pyrazol-4-yl)-6-fluoro-1H-indole], the IC50 in assay [1] and in assay [2] was < 1 µM in each case.
`CNC(=O)[C@H]1C[C@@H](n2cc(-c3c[nH]c4cc(F)ccc34)cn2)C1` [Example 63, (1S,3S)-3-(4-(6-fluoro-1H-indol-3-yl)-1H-pyrazol-1-yl)-N-methylcyclobutanecarboxamide]: in assay [1], the IC50 is 1 to 10 µM.
On to `CC(=O)N1CC(n2cc(-c3c[nH]c4cc(F)ccc34)cn2)C1` [Example 3, 1-(3-(4-(6-fluoro-1H-indol-3-yl)-1H-pyrazol-1-yl)azetidin-1-yl)ethanone], for which the IC50 in assay [1] is 1 to 10 µM.
Consider `Fc1ccc2c(-c3cnn(-c4ccc(Cl)nn4)c3)c[nH]c2c1` [Example 108, 3-(1-(6-chloropyridazin-3-yl)-1H-pyrazol-4-yl)-6-fluoro-1H-indole], for which the 50% inhibitory concentration (IC50) in assay [1] was 10 to 100 µM.
Regarding `O=C(O)CCC(=O)N1CCC(Cn2cc(-c3c[nH]c4cc(F)ccc34)cn2)CC1` [Example 50, 4-(4-((4-(6-fluoro-1H-indol-3-yl)-1H-pyrazol-1-yl)methyl)piperidin-1-yl)-4-oxobutanoic acid], the IC50 in assay [1] lay in the range of 10 to 100 µM.
Same read-out and setting: as for `O=C1CCCN1CCn1cc(-c2c[nH]c3cc(F)ccc23)cn1` [Example 30, 1-(2-(4-(6-fluoro-1H-indol-3-yl)-1H-pyrazol-1-yl)ethyl)pyrrolidin-2-one], the figure is 1 to 10 µM; as for `O=C(O)CN1CCC(Cn2cc(-c3c[nH]c4cc(F)ccc34)cn2)CC1` [Example 49, 2-(4-((4-(6-fluoro-1H-indol-3-yl)-1H-pyrazol-1-yl)methyl)piperidin-1-yl)acetic acid], 1 to 10 µM.
Regarding `O=C(O)[C@H]1C[C@H](n2cc(-c3c[nH]c4cc(F)ccc34)cn2)C1` [Example 66, (1R,3R)-3-(4-(6-fluoro-1H-indol-3-yl)-1H-pyrazol-1-yl)cyclobutanecarboxylic acid], in assay [1], the IC50 was in the range of 10 to 100 µM.
Regarding `O=C(O)CCn1cc(-c2c[nH]c3cc(F)ccc23)cn1` [Example 16, 3-(4-(6-fluoro-1H-indol-3-yl)-1H-pyrazol-1-yl)propanoic acid], the IC50 in assay [1] lay within 1 to 10 µM.
For `O=C(O)Cn1cc(-c2c[nH]c3cc(F)ccc23)cn1` [Example 41, 2-(4-(6-fluoro-1H-indol-3-yl)-1H-pyrazol-1-yl)acetic acid], the IC50 in assay [1] fell in the range of 10 to 100 µM.
With `Fc1ccc2c(-c3cnn(CC4CCN(CC(F)(F)F)CC4)c3)c[nH]c2c1` [Example 45, 6-fluoro-3-(1-((1-(2,2,2-trifluoroethyl)piperidin-4-yl)methyl)-1H-pyrazol-4-yl)-1H-indole], the half-inhibitory concentration (IC50) in assay [1] is 1 to 10 µM.
With `O=C(O)[C@H]1C[C@@H](n2cc(-c3c[nH]c4cc(F)ccc34)cn2)C1` [Example 65, (1S,3S)-3-(4-(6-fluoro-1H-indol-3-yl)-1H-pyrazol-1-yl)cyclobutanecarboxylic acid], the 50% inhibitory concentration (IC50) in assay [1] fell in the range of 10 to 100 µM.
As for `OCCN1CCC(n2cc(-c3c[nH]c4cc(F)ccc34)cn2)CC1` [Example 79, 2-(4-(4-(6-fluoro-1H-indol-3-yl)-1H-pyrazol-1-yl)piperidin-1-yl)ethanol], in assay [1], the 50% inhibitory concentration (IC50) lay in the range of 1 to 10 µM.
Take `CC(=O)N1CCN(CCn2cc(-c3c[nH]c4cc(F)ccc34)cn2)CC1` [Example 28, 1-(4-(2-(4-(6-fluoro-1H-indol-3-yl)-1H-pyrazol-1-yl)ethyl)piperazin-1-yl)ethanone]: the IC50 in assay [1] fell in the range of 10 to 100 µM.
For the molecule `COCCC(=O)N1CCC(n2cc(-c3c[nH]c4cc(F)ccc34)cn2)CC1` [Example 81, 1-(4-(4-(6-fluoro-1H-indol-3-yl)-1H-pyrazol-1-yl)piperidin-1-yl)-3-methoxypropan-1-one], the IC50 in assay [1] was 1 to 10 µM.
Still for that read-out and setting: as for `FC(F)(F)c1ccc2c(-c3cn[nH]c3)c[nH]c2c1` [Example 72, 3-(1H-pyrazol-4-yl)-6-(trifluoromethyl)-1H-indole], the figure is 10 to 100 µM; as for `CNC(=O)NCCn1cc(-c2c[nH]c3cc(F)ccc23)cn1` [Example 23, 1-(2-(4-(6-fluoro-1H-indol-3-yl)-1H-pyrazol-1-yl)ethyl)-3-methylurea], 1 to 10 µM.
On to `CNC(=O)[C@H]1C[C@H](n2cc(-c3c[nH]c4cc(F)ccc34)cn2)C1` [Example 64, (1R,3R)-3-(4-(6-fluoro-1H-indol-3-yl)-1H-pyrazol-1-yl)-N-methylcyclobutanecarboxamide], for which, in assay [1], the IC50 was in the range of 1 to 10 µM.
On to `COC(=O)Cn1cc(-c2c[nH]c3cc(F)ccc23)cn1` [Example 42, methyl 2-(4-(6-fluoro-1H-indol-3-yl)-1H-pyrazol-1-yl)acetate], for which the IC50 in assay [1] lay within 1 to 10 µM.
On the same count and under the same terms, as for `CNC(=O)CCn1cc(-c2c[nH]c3cc(F)ccc23)cn1` [Example 14, 3-(4-(6-fluoro-1H-indol-3-yl)-1H-pyrazol-1-yl)-N-methylpropanamide], the figure is 1 to 10 µM.
`CCC(=O)N1CCC(n2cc(-c3c[nH]c4cc(F)ccc34)cn2)CC1` [Example 82, 1-(4-(4-(6-fluoro-1H-indol-3-yl)-1H-pyrazol-1-yl)piperidin-1-yl)propan-1-one]: in assay [1], the IC50 was 1 to 10 µM.
Take `O=C1NCCN1CCn1cc(-c2c[nH]c3cc(F)ccc23)cn1` [Example 18, 1-(2-(4-(6-fluoro-1H-indol-3-yl)-1H-pyrazol-1-yl)ethyl)imidazolidin-2-one]: the IC50 in assay [1] was in the range of 1 to 10 µM.
